The values below come from US9249125B2, “Pyrazole derivatives as p38 MAP inhibitors” (RESPIVERT LIMITED, priority 2012, dated 2016).

Series [1] deals with LPS-induced IL-8 release in d-U937 cells. Briefly: LPS-induced IL-8 release in d-U937 cells. It is filed as cell-based. Particulars: Homo sapiens, dU937, read-out: LPS Induced Release of Cytokine in d-937 Cells IL-8 IC50. A digest of the protocol:
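PMA (100 ng/mL, 48–72 hr)-differentiated U937; cpd 2 hr pre-inc; LPS 0.1 μg/mL (E. coli O111:B4) 4 hr. Supernatant TNFα/IL-8 by sandwich ELISA. IL-8 inhibition per concentration vs vehicle; REC50 from curve fit.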

The test system of a further series is d-U937 cells. Kind of series: Cell viability: MTT assay. As to conditions: 1 μg/mL. It is filed as cell-based, human. A digest of the protocol: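 Differentiated U937 cells were exposed to compound at 1 or 10 μg/mL either 4 h in 5% FCS RPMI1640 or 24 h in 10% FCS RPMI1640, then given MTT for 1 h, DMSO-solubilised and read at 550 nm. Percent viability loss versus 0.5% DMSO vehicle; apparent gains appear negative.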

The subject of series [2] is Poly I:C-induced ICAM-1 expression in BEAS2B cells. Briefly: Poly I:C-induced ICAM-1 expression in BEAS2B cells. It is filed as cell-based. As to conditions: Homo sapiens, BEAS-2B, read-out: Poly IC induced ICAM1 in BEAS2B IC50. A digest of the protocol:
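BEAS2B human bronchial epithelial cells pre-incubated with compound for 2 hr, then transfected with 1 μg/mL poly I:C plus Oligofectamine. At 18 hr, surface ICAM-1 measured by cell-based ELISA (HRP, OD450–655). Signal corrected for cell number by crystal violet OD595.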

For series [3], the system named is LPS-induced TNFα release in d-U937 cells. Kind of series: LPS-induced TNFα release in d-U937 cells. It is filed as cell-based. Particulars: Homo sapiens, dU937, relative to 10 μg/mL BIRB796, read-out: LPS Induced Release of Cytokine in d-937 Cells TNFα REC50. The essentials: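 Sandwich ELISA of culture supernatant gives TNFα and IL-8 levels after a 4 hr challenge with LPS (0.1 μg/mL, E. coli O111:B4). Before stimulation, macrophage-like U937 cells, obtained by 48–72 hr in PMA at 100 ng/mL, sit with compound for 2 hr. Relative EC50 is derived from concentration-response data.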

In the next series the target is Syk (Homo sapiens (Human), UniProt P43405). Briefly: Syk enzyme inhibition (FRET, Z-LYTE). It is filed as biochemical. The essentials: (§1)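 Z-LYTE FRET kinase assay: enzyme (3000 or 2000 ng/mL stock, respectively) preincubated 2 h at RT with compound (4–0.004 μg/mL stocks), then FRET peptide plus ATP (800 μM stock for c-Src, 60 μM for Syk) added for 1 h. Protease development 1 h; phosphorylation from coumarin/fluorescein emission ratio.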

The target in the next series is cSrc (Homo sapiens (Human), UniProt P12931). Kind of series: c-Src enzyme inhibition (FRET, Z-LYTE). It is filed as biochemical. A digest of the protocol:
as §1

Another series deals with p38 MAPKα (Homo sapiens (Human), UniProt Q16539). Kind of series: p38 MAPKα enzyme inhibition (FRET, Z-LYTE). It is filed as biochemical.
p38 MAPKα, sequence (Q16539 whole entry): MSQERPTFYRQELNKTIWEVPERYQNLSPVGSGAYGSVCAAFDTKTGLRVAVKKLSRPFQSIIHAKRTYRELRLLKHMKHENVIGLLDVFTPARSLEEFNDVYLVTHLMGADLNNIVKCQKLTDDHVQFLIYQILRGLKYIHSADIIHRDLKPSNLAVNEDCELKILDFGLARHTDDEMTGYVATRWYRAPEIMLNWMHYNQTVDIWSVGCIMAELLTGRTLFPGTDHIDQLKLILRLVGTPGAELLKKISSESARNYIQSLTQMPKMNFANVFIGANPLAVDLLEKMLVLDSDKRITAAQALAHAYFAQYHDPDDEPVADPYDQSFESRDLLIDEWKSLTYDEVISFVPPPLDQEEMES

Molecules are shown by their SMILES. pEC50, pIC50: −log10 of the molar value.

cSrc, sequence (P12931 whole entry, looked up): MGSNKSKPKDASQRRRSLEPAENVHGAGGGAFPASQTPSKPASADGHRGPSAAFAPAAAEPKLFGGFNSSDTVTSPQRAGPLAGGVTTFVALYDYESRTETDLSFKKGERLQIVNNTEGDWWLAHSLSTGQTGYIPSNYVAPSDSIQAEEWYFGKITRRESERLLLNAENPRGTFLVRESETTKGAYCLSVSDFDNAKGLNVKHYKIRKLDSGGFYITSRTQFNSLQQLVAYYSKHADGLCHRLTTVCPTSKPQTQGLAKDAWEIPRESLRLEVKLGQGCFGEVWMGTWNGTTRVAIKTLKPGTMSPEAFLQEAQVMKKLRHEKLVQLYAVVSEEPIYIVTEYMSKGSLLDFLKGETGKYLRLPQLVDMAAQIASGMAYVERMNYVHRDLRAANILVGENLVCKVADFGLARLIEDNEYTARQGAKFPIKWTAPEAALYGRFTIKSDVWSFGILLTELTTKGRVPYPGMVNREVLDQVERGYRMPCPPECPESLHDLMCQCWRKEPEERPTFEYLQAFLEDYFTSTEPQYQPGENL

With `Cc1ccc(-n2nc(C(C)(C)C)cc2NC(=O)Nc2ccc(Oc3cc(Nc4ccc5[nH]ncc5c4)ncn3)c3ccccc23)cc1` [Example 23, 1-(4-((6-((1H-indazol-5-yl)amino)pyrimidin-4-yl)oxy)naphthalen-1-yl)-3-(3-(tert-butyl)-1-(p-tolyl)-1H-pyrazol-5-yl)urea], the pIC50 was 8.57 in series [1]; 8.37 in series [2]; 7.24 against Syk; 7.80 against cSrc; 7.52 against p38 MAPKα. For the same molecule, the “MTT Assay Cell viability at time point in d-U937 cells 4 h” value in the series on d-U937 cells was “−ve (−ve and +ve indicate that the value is below and above respectively, the no significant effect threshold, defined as 30% inhibition at 1 μg/mL at the time point indicated.)”. For the same molecule, the “MTT Assay Cell viability at time point in d-U937 cells 24 h” value in the series with d-U937 cells was “−ve (−ve and +ve indicate that the value is below and above respectively, the no significant effect threshold, defined as 30% inhibition at 1 μg/mL at the time point indicated.)”. Besides, the pEC50 in series [3] is 8.48.
Take `Cc1ccc(-n2nc(C(C)(C)C)cc2NC(=O)Nc2ccc(Oc3ccnc(Nc4ccc5[nH]cnc5c4)n3)c3ccccc23)cc1` [Example 30, 1-(4-((2-((1H-benzo[d]imidazol-5-yl)amino)pyrimidin-4-yl)oxy)naphthalen-1-yl)-3-(3-(tert-butyl)-1-(p-tolyl)-1H-pyrazol-5-yl)urea]: the pIC50 in series [1] is 8.11; in series [2], 8.33; at Syk it was < 5.80; on cSrc, 7.77; against p38 MAPKα, 7.05. Also, the “MTT Assay Cell viability at time point in d-U937 cells 4 h” value in the series on d-U937 cells was “−ve (−ve and +ve indicate that the value is below and above respectively, the no significant effect threshold, defined as 30% inhibition at 1 μg/mL at the time point indicated.)”. In addition, the “MTT Assay Cell viability at time point in d-U937 cells 24 h” value with d-U937 cells was “−ve (−ve and +ve indicate that the value is below and above respectively, the no significant effect threshold, defined as 30% inhibition at 1 μg/mL at the time point indicated.)”. In addition, in series [3], the pEC50 is 8.74.
With `CC(C)(C)c1cc(NC(=O)Nc2ccc(Oc3ccnc(Nc4ccc5[nH]ncc5c4)n3)c3ccccc23)n(-c2ccc(OCCN3CCOCC3)cc2)n1` [Example 12, 1-(4-((2-((1H-Indazol-5-yl)amino)pyrimidin-4-yl)oxy)naphthalen-1-yl)-3-(3-(tert-butyl)-1-(4-(2-morpholinoethoxy)phenyl)-1H-pyrazol-5-yl)urea], the pIC50 in series [1] is 8.70; in series [2] it was 7.67; against Syk it was 7.66; against cSrc, 7.89; on p38 MAPKα, 7.11. For the same molecule, the “MTT Assay Cell viability at time point in d-U937 cells 4 h” value in the series on d-U937 cells was “−ve (−ve and +ve indicate that the value is below and above respectively, the no significant effect threshold, defined as 30% inhibition at 1 μg/mL at the time point indicated.)”. The “MTT Assay Cell viability at time point in d-U937 cells 24 h” value in the series with d-U937 cells was “−ve (−ve and +ve indicate that the value is below and above respectively, the no significant effect threshold, defined as 30% inhibition at 1 μg/mL at the time point indicated.)”. The pEC50 in series [3] is 8.80.
For the molecule `Cc1ccc(-n2nc(C(C)(C)C)cc2NC(=O)Nc2ccc(Oc3ccnc(Nc4ccc5ncn(C)c5c4)n3)c3ccccc23)cc1` [Example 31, 1-(3-(tert-butyl)-1-(p-tolyl)-1H-pyrazol-5-yl)-3-(4-((2-((1-methyl-1H-benzo[d]imidazol-6-yl)amino)pyrimidin-4-yl)oxy)naphthalen-1-yl)urea], the pIC50 in series [1] is 9.22; in series [2], 8.64; on Syk it was 6.70; against cSrc it was 8.22; on p38 MAPKα, 7.48. In addition, in the series on d-U937 cells, the “MTT Assay Cell viability at time point in d-U937 cells 4 h” value was “−ve (−ve and +ve indicate that the value is below and above respectively, the no significant effect threshold, defined as 30% inhibition at 1 μg/mL at the time point indicated.)”. For the same molecule, the “MTT Assay Cell viability at time point in d-U937 cells 24 h” value in the series on d-U937 cells was “−ve (−ve and +ve indicate that the value is below and above respectively, the no significant effect threshold, defined as 30% inhibition at 1 μg/mL at the time point indicated.)”. Besides, the pEC50 in series [3] is 9.52.
For the molecule `COc1ccc(-n2nc(C(C)(C)C)cc2NC(=O)Nc2ccc(Oc3ccnc(Nc4ccc5[nH]ncc5c4)n3)c3ccccc23)cc1` [Example 40, 1-(4-((2-((1H-indazol-5-yl)amino)pyrimidin-4-yl)oxy)naphthalen-1-yl)-3-(3-(tert-butyl)-1-(4-methoxyphenyl)-1H-pyrazol-5-yl)urea], the pIC50 in series [1] is 8.14; in series [2], 8.62; against Syk it was 7.62; on cSrc, 8.10; against p38 MAPKα it was 7.17. Also, the “MTT Assay Cell viability at time point in d-U937 cells 4 h” value in the series on d-U937 cells was “−ve (−ve and +ve indicate that the value is below and above respectively, the no significant effect threshold, defined as 30% inhibition at 1 μg/mL at the time point indicated.)”. In addition, the “MTT Assay Cell viability at time point in d-U937 cells 24 h” value with d-U937 cells is “−ve (−ve and +ve indicate that the value is below and above respectively, the no significant effect threshold, defined as 30% inhibition at 1 μg/mL at the time point indicated.)”. In addition, in series [3], the pEC50 is 8.82.
`Cc1ccc(-n2nc(C(C)(C)C)cc2NC(=O)Nc2ccc(Oc3ccnc(Nc4cccc5cc[nH]c45)n3)c3ccccc23)cc1` [Example 17]: the pIC50 was 8.13 in series [1]; 8.08 in series [2]; 6.55 against Syk; 6.86 against cSrc; 6.42 on p38 MAPKα. Further, in the series with d-U937 cells, the “MTT Assay Cell viability at time point in d-U937 cells 4 h” value is “−ve (−ve and +ve indicate that the value is below and above respectively, the no significant effect threshold, defined as 30% inhibition at 1 μg/mL at the time point indicated.)”. Also, the “MTT Assay Cell viability at time point in d-U937 cells 24 h” value with d-U937 cells is “−ve (−ve and +ve indicate that the value is below and above respectively, the no significant effect threshold, defined as 30% inhibition at 1 μg/mL at the time point indicated.)”. Besides, in series [3], the pEC50 is 8.06.
Consider `Cc1ccc(-n2nc(C(C)(C)C)cc2NC(=O)Nc2ccc(Oc3ccnc(Nc4ccc5c(ccn5C)c4)n3)c3ccccc23)cc1` [Example 18, 1-(3-(tert-butyl)-1-(p-tolyl)-1H-pyrazol-5-yl)-3-(4-((2-((1-methyl-1H-indol-5-yl)amino)pyrimidin-4-yl)oxy)naphthalen-1-yl)urea], for which the pIC50 in series [1] is 8.24; in series [2] it was 8.72; on Syk it was 7.04; at cSrc, 6.81; against p38 MAPKα it was 5.87. Moreover, in the series on d-U937 cells, the “MTT Assay Cell viability at time point in d-U937 cells 4 h” value is “−ve (−ve and +ve indicate that the value is below and above respectively, the no significant effect threshold, defined as 30% inhibition at 1 μg/mL at the time point indicated.)”. Besides, in the series on d-U937 cells, the “MTT Assay Cell viability at time point in d-U937 cells 24 h” value was “−ve (−ve and +ve indicate that the value is below and above respectively, the no significant effect threshold, defined as 30% inhibition at 1 μg/mL at the time point indicated.)”. In addition, the pEC50 in series [3] is 8.55.
On to `Cc1ccc(-n2nc(C(C)(C)C)cc2NC(=O)Nc2ccc(Oc3ccnc(Nc4ccc5ncsc5c4)n3)c3ccccc23)cc1` [Example 35, 1-(4-((2-(benzo[d]thiazol-6-ylamino)pyrimidin-4-yl)oxy)naphthalen-1-yl)-3-(3-(tert-butyl)-1-(p-tolyl)-1H-pyrazol-5-yl)urea], for which the pIC50 in series [1] is 7.65; in series [2] it was 8.57; on Syk, < 5.81; at cSrc, 7.74; against p38 MAPKα it was 6.36. The “MTT Assay Cell viability at time point in d-U937 cells 4 h” value in the series on d-U937 cells is “−ve (−ve and +ve indicate that the value is below and above respectively, the no significant effect threshold, defined as 30% inhibition at 1 μg/mL at the time point indicated.)”. The “MTT Assay Cell viability at time point in d-U937 cells 24 h” value with d-U937 cells was “−ve (−ve and +ve indicate that the value is below and above respectively, the no significant effect threshold, defined as 30% inhibition at 1 μg/mL at the time point indicated.)”. For the same molecule, the pEC50 in series [3] is 7.96.
For the molecule `Cc1ccc(-n2nc(C(C)(C)C)cc2NC(=O)Nc2ccc(Oc3ccnc(Nc4ccc5cn[nH]c5c4)n3)c3ccccc23)cc1` [Example 24, 1-(4-((2-((1H-indazol-6-yl)amino)pyrimidin-4-yl)oxy)naphthalen-1-yl)-3-(3-(tert-butyl)-1-(p-tolyl)-1H-pyrazol-5-yl)urea], the pIC50 in series [1] was 7.77; in series [2], 8.62; against Syk, 5.96; against cSrc, 6.99; against p38 MAPKα, 6.61. Also, the “MTT Assay Cell viability at time point in d-U937 cells 4 h” value in the series on d-U937 cells is “−ve (−ve and +ve indicate that the value is below and above respectively, the no significant effect threshold, defined as 30% inhibition at 1 μg/mL at the time point indicated.)”. In addition, the “MTT Assay Cell viability at time point in d-U937 cells 24 h” value with d-U937 cells was “−ve (−ve and +ve indicate that the value is below and above respectively, the no significant effect threshold, defined as 30% inhibition at 1 μg/mL at the time point indicated.)”. In addition, the pEC50 in series [3] was 8.33.
